Patent US20100311694A1, “Set of Geldanamycin Derivatives and Their Preparation Methods” (Institute of Medicinal Biotechnology, Chinese Academy of …, priority 2008, published 2010)

Experiments:
HBV = test: Anti-HBV activity (HBV DNA in cell lysate, spot hybridization); type: cell-based; details: HBV DNA content of the cells, reagent solution changed every 4 days
Method in brief: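 Monolayer cell cultures treated with compound dilutions (4 wells per concentration), medium with compound refreshed every 4 days. HBV DNA extracted from lysates, quantified by spot hybridisation and autoradiography against standard curves; half-effective concentration derived versus untreated cell control.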

HIV-1 = test: Anti HIV-1 activity (HIV-1 P24 antigen in cell cultures); type: cell-based; details: 4 days after addition of the reagents

| Structure (SMILES) | Activity of HBV inhibition IC50 (HBV) | Activity of HIV inhibition IC50 (HIV-1) |
| --- | --- | --- |
| COC1C=CC=C(C)C(=O)NC2=CC(=O)C(NCCc3c[nH]c4ccccc34)=C(CC(C)CC(OC)C(O)C(C)C=C(C)C1OC(N)=O)C2=O (centres unmarked) [GM-W90] | 0.93 µg/mL | 1.23 µg/mL |
| COC1C=CC=C(C)C(=O)NC2=C(NCC3CCCO3)C(=O)C(NCC3CCCO3)=C(CC(C)CC(OC)C(O)C(C)C=C(C)C1OC(N)=O)C2=O [THFM + 2, 17,19-di-(S)-tetrahydrofurfuryl amino-17-demethoxy geldanamycin] | 0.10 µg/mL | 0.18 µg/mL |
| CO[C@H]1/C=C/C=C(\C)C(=O)NC2=CC(=O)C(NC[C@H]3CCCO3)=C(C[C@H](C)C[C@H](OC)[C@H](O)[C@@H](C)/C=C(\C)[C@H]1OC(N)=O)C2=O [THFM(R)-GM, 2′R-17-tetrahydrofurfurylamino-17-demethoxy geldanamycin] | 0.01 µg/mL | 0.05 µg/mL |
| CO[C@H]1/C=C\C=C(/C)C(=O)NC2=CC(=O)C(NC[C@@H]3CCCO3)=C(C[C@@H](C)C[C@H](OC)[C@H](O)[C@@H](C)/C=C(\C)[C@@H]1OC(N)=O)C2=O [THFM(S)-GM, 2′S-17-tetrahydrofurfurylamino-17-demethoxy geldanamycin] | 0.032 µg/mL | 0.06 µg/mL |
| COC1C=CC=C(C)C(=O)NC2=C(NCC3CCCO3)C(=O)C(NCC3CCCO3)=C(CC(C)CC(OC)C(O)C(C)C=C(C)C1OC(N)=O)C2=O (centres unmarked) [THFM-GM2] | 0.064 µg/mL | 0.24 µg/mL |
| CO[C@H]1/C=C\C=C(/C)C(=O)NC2=CC(=O)C(NCC3CCCO3)=C(C[C@@H](C)C[C@H](OC)[C@H](O)[C@@H](C)/C=C(\C)[C@@H]1OC(N)=O)C2=O (some centres unmarked) [THFM-GM, 17-tetrahydrofurfurylamino-17-demethoxy geldanamycin] | 0.01 µg/mL | 0.14 µg/mL |
| CO[C@H]1/C=C/C=C(\C)C(=O)NC2=C(NC[C@H]3CCCO3)C(=O)C(NC[C@H]3CCCO3)=C(C[C@H](C)C[C@H](OC)[C@H](O)[C@@H](C)/C=C(\C)[C@H]1OC(N)=O)C2=O [THFM-II, 17,19-di-(R)-tetrahydrofurfuryl amino-17-demethoxy geldanamycin] | 0.013 µg/mL | >22.2 µg/mL |
